Converted amounts (≈) assume the structure as drawn.
Assays:
Rhodotorula mucilaginosa = assay: Antifungal activity against Rhodotorula pilimanae by CLSI […] protocol based method; assay type: functional
Fusarium graminearum = assay: Antifungal activity against Fusarium graminearum by CLSI […] protocol based method; assay type: functional
Candida albicans [1] = assay: Antifungal activity against Candida albicans MYA2876 by CLSI […] protocol based method; assay type: functional
Candida albicans [2] = assay: Antifungal activity against Candida albicans ATCC 64124 by CLSI […] protocol based method; assay type: functional
Cryptococcus neoformans = assay: Antifungal activity against Cryptococcus neoformans H99 by CLSI […] protocol based method; assay type: functional; conditions: var grubii H99
Aspergillus flavus = assay: Antifungal activity against Aspergillus flavus by CLSI […] protocol based method; assay type: functional
Staphylococcus aureus [3] = assay: Antibacterial activity against Staphylococcus aureus ATCC 43300 after 18 hrs; assay type: functional; conditions: ATCC 43300, 18 h
HeLa [4] = assay: Cytotoxicity against human HeLa cells up to 10 ug/ml after 24 hrs by MTT assay; assay type: cell-based
HeLa [5] = assay: Cytotoxicity against human HeLa cells after 24 hrs by MTT assay; assay type: cell-based
Escherichia coli = assay: Antibacterial activity against Escherichia coli ATCC 25922 after 18 hrs; assay type: functional; conditions: ATCC 25922, 18 h
Staphylococcus aureus [6] = assay: Antibacterial activity against Staphylococcus aureus ATCC 25923 after 18 hrs; assay type: functional; conditions: ATCC 25923, 18 h
Staphylococcus aureus [7] = assay: Antibacterial activity against Staphylococcus aureus ATCC 33591 after 18 hrs; assay type: functional; conditions: ATCC 33591, 18 h

| SMILES | MIC (Rhodotorula mucilaginosa) [µg/mL] | MIC (Fusarium graminearum) [µg/mL] | MIC (Candida albicans [1]) [µg/mL] | MIC (Candida albicans [2]) [µg/mL] | MIC (Cryptococcus neoformans) [µg/mL] | MIC (Aspergillus flavus) [µg/mL] | MIC (Staphylococcus aureus [3]) [µg/mL] | Activity (HeLa [4]) | IC50 (HeLa [5]) [µg/mL] | MIC (Escherichia coli) [µg/mL] | MIC (Staphylococcus aureus [6]) [µg/mL] | MIC (Staphylococcus aureus [7]) [µg/mL] |
| --- | --- | --- | --- | --- | --- | --- | --- | --- | --- | --- | --- | --- |
| CCCCCCCCS(=O)(=O)OC[C@H]1O[C@H](O[C@@H]2[C@@H](O)[C@H](O[C@H]3O[C@H](CN)[C@@H](O)[C@H](O)[C@H]3O)[C@@H](N)C[C@H]2N)[C@H](O)[C@@H](N)[C@@H]1O | 4 (≈ 6.05 µM) | 32 (≈ 48.4 µM) | 64 (≈ 96.9 µM) | 256 (≈ 387 µM) | 4 (≈ 6.05 µM) | > 256 |  |  |  |  |  |  |
| CCOP(=O)(CCCCCCCCCCn1nnc2c1C(=O)c1ccccc1C2=O)OCC | > 128 | 0.5 (≈ 1.05 µM) | > 128 | > 128 | > 128 |  | 16 to 64 (≈ 33.6 to 135 µM) | Non-Toxic | 65.7 (≈ 138 µM) | > 128 | > 128 | 64 (≈ 135 µM) |
| O=C1c2ccccc2C(=O)c2c1nnn2CCCP(=O)([O-])[O-].[K+].[K+] | 32 | 32 | 32 | 32 | 32 | 16 to 32 | 64 to 128 | Non-Toxic | 88 | > 256 | 32 | 128 |
| CCOP(=O)(CCCCn1nnc2c1C(=O)c1ccccc1C2=O)OCC | 128 (≈ 327 µM) | 8 (≈ 20.4 µM) | > 128 | > 128 | 32 (≈ 81.8 µM) | > 128 | 64 to 128 (≈ 164 to 327 µM) |  | 9.11 (≈ 23.3 µM) | > 128 | 128 (≈ 327 µM) | 128 (≈ 327 µM) |
| CCOP(=O)(CCCCCCn1nnc2c1C(=O)c1ccccc1C2=O)OCC | 64 to 128 (≈ 153 to 305 µM) | 4 (≈ 9.54 µM) | > 128 | > 128 | 32 (≈ 76.3 µM) | > 128 | 32 to 64 (≈ 76.3 to 153 µM) |  | 47 (≈ 112 µM) | > 128 | 32 to 64 (≈ 76.3 to 153 µM) | 64 (≈ 153 µM) |
| O=C1c2ccccc2C(=O)c2c1nnn2CCCCCCCCP(=O)([O-])[O-].[K+].[K+] | > 128 | 32 | 8 to 16 | 16 to 32 | 32 | 8 to 16 | > 256 | Non-Toxic | 95.3 | > 256 | 64 | 256 |
| CCOP(=O)(CCn1nnc2c1C(=O)c1ccccc1C2=O)OCC | 64 to 128 (≈ 176 to 352 µM) | 16 (≈ 44 µM) | > 128 | > 128 | 16 (≈ 44 µM) | 64 to 128 (≈ 176 to 352 µM) | 64 (≈ 176 µM) |  | 13.8 (≈ 38.1 µM) | > 128 | 64 (≈ 176 µM) | 64 (≈ 176 µM) |
| CCOP(=O)(CCCn1nnc2c1C(=O)c1ccccc1C2=O)OCC | 64 to 128 (≈ 170 to 339 µM) | 16 (≈ 42.4 µM) | > 128 | > 128 | 16 (≈ 42.4 µM) | 64 to 128 (≈ 170 to 339 µM) | 64 to 128 (≈ 170 to 339 µM) |  | 6.97 (≈ 18.5 µM) | > 128 | 64 (≈ 170 µM) | 64 (≈ 170 µM) |
| O=C1c2ccccc2C(=O)c2c1nnn2CCCCCCP(=O)([O-])[O-].[K+].[K+] | 128 | 64 | 32 to 64 | 32 to 64 | 64 | 64 | 64 | Non-Toxic | 73.6 | > 256 | 32 to 64 | 64 |
| O=C1c2ccccc2C(=O)c2c1nnn2CCCCCCCCCCP(=O)([O-])[O-].[K+].[K+] | 64 | 32 | 128 | 128 | 32 |  | > 256 | Non-Toxic | > 100 | > 256 | 32 to 64 | > 256 |
| O=C1c2ccccc2C(=O)c2c1nnn2CCP(=O)([O-])[O-].[K+].[K+] | 128 | 32 | > 128 | > 128 | 64 | > 128 | 128 | Non-Toxic | 91.8 | > 256 | 32 | 128 |
| CCOP(=O)(CCCCCCCCn1nnc2c1C(=O)c1ccccc1C2=O)OCC | > 128 | 1 to 2 (≈ 2.23 to 4.47 µM) | > 128 | > 128 | > 128 | > 128 | 16 to 32 (≈ 35.8 to 71.5 µM) | Non-Toxic | 52 (≈ 116 µM) | > 128 | 64 (≈ 143 µM) | 32 (≈ 71.5 µM) |
| C[C@@H](c1ncncc1F)[C@](O)(Cn1cncn1)c1ccc(F)cc1F [VORICONAZOLE] | 8 (≈ 22.9 µM) | 32 (≈ 91.6 µM) | 0.125 (≈ 0.358 µM) | > 256 | 0.125 (≈ 0.358 µM) | 1 (≈ 2.86 µM) |  |  |  |  |  |  |
